Test results from ChEMBL document CHEMBL3608284, “C4 phenyl aporphines with selective h5-HT(2B) receptor affinity” (Bioorg Med Chem Lett, 2015).

What was measured:
[1] = biological target: D(2) dopamine receptor (Homo sapiens) (UniProt P14416); test: Binding affinity to dopamine D2 receptor (unknown origin) at 10 uM
[2] = biological target: T1, 5-hydroxytryptamine receptor 2B (Homo sapiens, UniProt P41595); test: Displacement of [3H]LSD from 5HT2B receptor (unknown origin) at 10 uM
[3] = biological target: D(4) dopamine receptor (Homo sapiens) (UniProt P21917); test: Binding affinity to dopamine D4 receptor (unknown origin) at 10 uM
[4] = biological target: T2, 5-hydroxytryptamine receptor 1A (Homo sapiens) (UniProt P08908); test: Displacement of [3H]-8-OH-DPAT from 5HT1A receptor (unknown origin) at 10 uM
T2 sequence (whole entry): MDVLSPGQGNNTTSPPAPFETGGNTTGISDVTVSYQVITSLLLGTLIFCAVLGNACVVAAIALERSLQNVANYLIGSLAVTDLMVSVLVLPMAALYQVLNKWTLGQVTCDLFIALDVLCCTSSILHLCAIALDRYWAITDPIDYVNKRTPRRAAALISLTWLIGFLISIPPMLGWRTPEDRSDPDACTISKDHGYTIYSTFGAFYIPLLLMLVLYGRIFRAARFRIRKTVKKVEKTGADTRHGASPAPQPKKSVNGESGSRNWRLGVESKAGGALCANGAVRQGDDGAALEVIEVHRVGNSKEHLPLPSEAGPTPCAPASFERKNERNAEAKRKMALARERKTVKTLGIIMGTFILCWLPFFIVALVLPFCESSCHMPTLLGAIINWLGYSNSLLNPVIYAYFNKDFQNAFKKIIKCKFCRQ

[5] = biological target: T3, 5-hydroxytryptamine receptor 3A (Homo sapiens) (UniProt P46098); test: Displacement of [3H]LY278584 from 5HT3 receptor (unknown origin) at 10 uM
T3 sequence (whole entry): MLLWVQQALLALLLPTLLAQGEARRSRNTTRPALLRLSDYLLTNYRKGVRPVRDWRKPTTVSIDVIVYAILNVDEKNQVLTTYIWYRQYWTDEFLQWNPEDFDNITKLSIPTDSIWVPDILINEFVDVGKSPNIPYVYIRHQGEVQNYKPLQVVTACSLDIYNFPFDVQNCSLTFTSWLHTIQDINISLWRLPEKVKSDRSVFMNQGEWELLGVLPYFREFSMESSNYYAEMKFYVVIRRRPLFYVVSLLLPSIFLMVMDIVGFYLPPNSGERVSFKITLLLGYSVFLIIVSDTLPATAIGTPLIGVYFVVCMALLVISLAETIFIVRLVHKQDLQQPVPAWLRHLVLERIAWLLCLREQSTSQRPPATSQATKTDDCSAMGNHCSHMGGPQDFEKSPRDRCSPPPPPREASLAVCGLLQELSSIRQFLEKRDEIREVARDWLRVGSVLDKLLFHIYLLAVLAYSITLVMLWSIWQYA

[6] = biological target: 5-hydroxytryptamine receptor 6 (Homo sapiens, UniProt P50406); test: Binding affinity to 5HT6 receptor (unknown origin)
Sigma 2 receptor = test: Binding affinity to sigma-2 receptor (unknown origin) at 10 uM; conditions: Homo sapiens
[7] = biological target: Alpha-1B adrenergic receptor (Homo sapiens) (UniProt P35368); test: Binding affinity to alpha1B adrenoceptor (unknown origin) at 10 uM
[8] = biological target: Histamine H4 receptor (Homo sapiens) (UniProt Q9H3N8); test: Binding affinity to histamine H4 receptor (unknown origin) at 10 uM
[9] = biological target: Beta-1 adrenergic receptor (Homo sapiens) (UniProt P08588); test: Binding affinity to beta1 adrenoceptor (unknown origin) at 10 uM
[10] = biological target: Mu-type opioid receptor (Homo sapiens) (UniProt P35372); test: Binding affinity to MOR (unknown origin) at 10 uM
[11] = biological target: Muscarinic acetylcholine receptor M3 (Homo sapiens) (UniProt P20309); test: Binding affinity to muscarinic M3 receptor (unknown origin) at 10 uM
[12] = biological target: Histamine H2 receptor (Homo sapiens) (UniProt P25021); test: Binding affinity to histamine H2 receptor (unknown origin) at 10 uM
[13] = biological target: Sodium-dependent dopamine transporter (Homo sapiens) (UniProt Q01959); test: Binding affinity to DAT (unknown origin) at 10 uM
Translocator protein = Translocator protein (Homo sapiens, UniProt P30536); test: Binding affinity to PBR (unknown origin)
[14] = biological target: Delta-type opioid receptor (Homo sapiens) (UniProt P41143); test: Binding affinity to DOR (unknown origin) at 10 uM
[15] = biological target: 5-hydroxytryptamine receptor 1D (Homo sapiens) (UniProt P28221); test: Displacement of [3H]GR125743 from 5HT1D receptor (unknown origin) at 10 uM
[16] = biological target: T1, 5-hydroxytryptamine receptor 2B; test: Displacement of [3H]LSD from 5HT2B receptor (unknown origin)
[17] = biological target: Histamine H3 receptor (Homo sapiens) (UniProt Q9Y5N1); test: Binding affinity to histamine H3 receptor (unknown origin) at 10 uM
[18] = biological target: Sigma non-opioid intracellular receptor 1 (Homo sapiens) (UniProt Q99720); test: Binding affinity to sigma-1 receptor (unknown origin) at 10 uM
[19] = biological target: 5-hydroxytryptamine receptor 1E (Homo sapiens) (UniProt P28566); test: Displacement of [3H]5HT from 5HT1E receptor (unknown origin) at 10 uM
[20] = biological target: Glutamate NMDA receptor; GRIN1/GRIN2A (Homo sapiens) (UniProt Q05586+Q12879); test: Binding affinity to NMDA receptor (unknown origin) at 10 uM; format: protein-complex assay
[21] = biological target: Muscarinic acetylcholine receptor M5 (Homo sapiens) (UniProt P08912); test: Binding affinity to muscarinic M5 receptor (unknown origin) at 10 uM
[22] = biological target: D(1B) dopamine receptor (Homo sapiens) (UniProt P21918); test: Binding affinity to dopamine D5 receptor (unknown origin) at 10 uM
[23] = biological target: GABA-A receptor; agonist GABA site (Homo sapiens) (UniProt P14867+P47870+P28472+P48169+P34903+P18505+P47869+P31644+Q16445); test: Binding affinity to GABAA receptor (unknown origin) at 10 uM; format: protein-complex assay

T1 sequence (P41595 whole entry): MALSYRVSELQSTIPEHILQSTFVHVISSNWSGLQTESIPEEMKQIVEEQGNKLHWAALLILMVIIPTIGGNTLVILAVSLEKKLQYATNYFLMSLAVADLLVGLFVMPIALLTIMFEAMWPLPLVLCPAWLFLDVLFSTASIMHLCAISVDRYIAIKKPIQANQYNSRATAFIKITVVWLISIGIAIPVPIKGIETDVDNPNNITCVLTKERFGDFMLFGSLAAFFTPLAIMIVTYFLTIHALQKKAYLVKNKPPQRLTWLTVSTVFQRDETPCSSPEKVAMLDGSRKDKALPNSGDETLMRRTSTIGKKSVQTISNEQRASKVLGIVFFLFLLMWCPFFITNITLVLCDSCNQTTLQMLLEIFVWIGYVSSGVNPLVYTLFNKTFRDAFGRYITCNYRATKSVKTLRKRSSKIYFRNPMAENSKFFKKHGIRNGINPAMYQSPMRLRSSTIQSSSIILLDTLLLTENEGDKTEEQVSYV
Muscarinic acetylcholine receptor M5 (Homo sapiens), sequence (P08912 whole entry): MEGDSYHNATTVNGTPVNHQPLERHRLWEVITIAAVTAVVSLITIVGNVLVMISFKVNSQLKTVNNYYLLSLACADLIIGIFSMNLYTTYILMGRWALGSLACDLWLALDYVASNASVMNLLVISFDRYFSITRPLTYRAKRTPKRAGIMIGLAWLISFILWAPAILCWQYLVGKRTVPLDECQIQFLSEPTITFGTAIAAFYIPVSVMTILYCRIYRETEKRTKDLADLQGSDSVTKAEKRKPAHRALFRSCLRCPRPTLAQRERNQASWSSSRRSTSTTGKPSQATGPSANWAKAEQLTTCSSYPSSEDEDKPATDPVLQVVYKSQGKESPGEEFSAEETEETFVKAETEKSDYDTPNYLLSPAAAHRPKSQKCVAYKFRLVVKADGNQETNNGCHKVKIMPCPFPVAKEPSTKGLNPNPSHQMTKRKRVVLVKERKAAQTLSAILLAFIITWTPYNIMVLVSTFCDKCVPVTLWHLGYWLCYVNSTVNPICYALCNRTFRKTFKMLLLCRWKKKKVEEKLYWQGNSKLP
Histamine H2 receptor (Homo sapiens), sequence (P25021 whole entry): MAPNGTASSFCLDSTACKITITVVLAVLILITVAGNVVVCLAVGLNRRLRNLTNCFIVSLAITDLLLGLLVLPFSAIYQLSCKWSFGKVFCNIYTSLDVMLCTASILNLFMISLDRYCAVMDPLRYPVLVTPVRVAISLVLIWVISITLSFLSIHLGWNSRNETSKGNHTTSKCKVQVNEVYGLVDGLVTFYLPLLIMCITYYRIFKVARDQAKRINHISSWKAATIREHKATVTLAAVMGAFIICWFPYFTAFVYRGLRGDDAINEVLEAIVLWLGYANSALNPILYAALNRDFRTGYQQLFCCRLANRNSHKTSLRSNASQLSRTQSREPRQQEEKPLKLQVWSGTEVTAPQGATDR
Alpha-1B adrenergic receptor (Homo sapiens), sequence (P35368 whole entry): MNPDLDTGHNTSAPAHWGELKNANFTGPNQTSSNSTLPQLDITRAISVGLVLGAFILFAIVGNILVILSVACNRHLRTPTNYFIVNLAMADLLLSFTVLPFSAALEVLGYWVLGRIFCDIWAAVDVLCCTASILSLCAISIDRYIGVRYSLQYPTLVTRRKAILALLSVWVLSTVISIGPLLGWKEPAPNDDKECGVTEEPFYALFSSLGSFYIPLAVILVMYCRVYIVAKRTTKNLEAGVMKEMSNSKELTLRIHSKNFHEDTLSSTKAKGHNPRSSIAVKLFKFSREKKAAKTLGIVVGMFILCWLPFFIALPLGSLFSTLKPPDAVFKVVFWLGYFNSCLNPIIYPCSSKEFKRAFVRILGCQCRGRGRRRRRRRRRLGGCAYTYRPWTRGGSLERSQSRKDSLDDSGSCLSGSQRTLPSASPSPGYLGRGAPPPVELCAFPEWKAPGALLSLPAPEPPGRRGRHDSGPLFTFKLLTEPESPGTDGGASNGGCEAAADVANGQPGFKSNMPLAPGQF
5-hydroxytryptamine receptor 6, sequence (P50406 whole entry): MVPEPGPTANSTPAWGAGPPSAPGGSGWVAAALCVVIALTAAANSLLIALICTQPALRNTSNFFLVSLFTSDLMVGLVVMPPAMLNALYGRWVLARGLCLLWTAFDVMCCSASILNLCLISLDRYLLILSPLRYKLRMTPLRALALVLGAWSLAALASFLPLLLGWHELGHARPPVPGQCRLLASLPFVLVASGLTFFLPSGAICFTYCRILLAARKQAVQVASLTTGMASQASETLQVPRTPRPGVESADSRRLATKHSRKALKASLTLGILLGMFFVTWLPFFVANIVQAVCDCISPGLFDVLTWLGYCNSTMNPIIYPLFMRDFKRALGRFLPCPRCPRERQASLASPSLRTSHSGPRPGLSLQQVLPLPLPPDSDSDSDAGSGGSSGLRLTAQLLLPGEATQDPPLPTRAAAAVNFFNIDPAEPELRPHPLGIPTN
5-hydroxytryptamine receptor 1E (Homo sapiens), sequence (P28566 whole entry): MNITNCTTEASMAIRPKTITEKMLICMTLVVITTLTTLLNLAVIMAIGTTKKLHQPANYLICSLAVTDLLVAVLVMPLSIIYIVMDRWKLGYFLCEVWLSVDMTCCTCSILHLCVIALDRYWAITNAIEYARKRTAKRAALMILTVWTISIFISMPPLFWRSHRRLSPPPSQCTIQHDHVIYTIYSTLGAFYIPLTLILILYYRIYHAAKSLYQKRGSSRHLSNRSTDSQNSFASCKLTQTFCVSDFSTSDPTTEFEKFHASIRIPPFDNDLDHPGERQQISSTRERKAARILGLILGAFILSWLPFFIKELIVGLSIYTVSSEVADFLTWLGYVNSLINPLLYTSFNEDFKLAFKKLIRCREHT
Sigma non-opioid intracellular receptor 1 (Homo sapiens), sequence (Q99720 whole entry): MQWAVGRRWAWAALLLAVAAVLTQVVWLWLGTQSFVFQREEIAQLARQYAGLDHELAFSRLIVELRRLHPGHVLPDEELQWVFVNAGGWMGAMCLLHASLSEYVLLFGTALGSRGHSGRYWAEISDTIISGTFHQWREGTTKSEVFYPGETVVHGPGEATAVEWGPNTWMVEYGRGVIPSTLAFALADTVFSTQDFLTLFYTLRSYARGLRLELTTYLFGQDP
D(4) dopamine receptor (Homo sapiens), sequence (P21917 whole entry): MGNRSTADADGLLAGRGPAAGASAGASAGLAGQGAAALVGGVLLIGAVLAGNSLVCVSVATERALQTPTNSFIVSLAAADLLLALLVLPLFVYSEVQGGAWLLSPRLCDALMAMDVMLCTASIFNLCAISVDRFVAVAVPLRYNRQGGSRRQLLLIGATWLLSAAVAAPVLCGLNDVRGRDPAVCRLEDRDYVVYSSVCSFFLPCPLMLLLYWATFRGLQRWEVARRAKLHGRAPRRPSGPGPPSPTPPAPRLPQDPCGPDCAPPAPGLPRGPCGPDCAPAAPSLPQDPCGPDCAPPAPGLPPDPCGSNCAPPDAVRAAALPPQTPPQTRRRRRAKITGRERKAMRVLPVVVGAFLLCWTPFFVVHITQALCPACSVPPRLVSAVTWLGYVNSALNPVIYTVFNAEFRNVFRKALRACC
Mu-type opioid receptor (Homo sapiens), sequence (P35372 whole entry): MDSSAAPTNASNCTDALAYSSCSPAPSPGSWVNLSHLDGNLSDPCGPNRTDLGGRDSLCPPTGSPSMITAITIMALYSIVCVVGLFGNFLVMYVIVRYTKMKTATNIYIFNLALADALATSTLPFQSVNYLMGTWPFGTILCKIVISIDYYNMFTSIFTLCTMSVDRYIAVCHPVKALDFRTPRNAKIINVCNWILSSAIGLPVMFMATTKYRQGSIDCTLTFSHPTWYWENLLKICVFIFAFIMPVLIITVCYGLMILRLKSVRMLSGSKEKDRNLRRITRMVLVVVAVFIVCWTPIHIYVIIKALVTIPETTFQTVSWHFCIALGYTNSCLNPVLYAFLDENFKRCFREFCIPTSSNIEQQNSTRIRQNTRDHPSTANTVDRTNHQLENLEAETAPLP
Histamine H3 receptor (Homo sapiens), sequence (Q9Y5N1 whole entry): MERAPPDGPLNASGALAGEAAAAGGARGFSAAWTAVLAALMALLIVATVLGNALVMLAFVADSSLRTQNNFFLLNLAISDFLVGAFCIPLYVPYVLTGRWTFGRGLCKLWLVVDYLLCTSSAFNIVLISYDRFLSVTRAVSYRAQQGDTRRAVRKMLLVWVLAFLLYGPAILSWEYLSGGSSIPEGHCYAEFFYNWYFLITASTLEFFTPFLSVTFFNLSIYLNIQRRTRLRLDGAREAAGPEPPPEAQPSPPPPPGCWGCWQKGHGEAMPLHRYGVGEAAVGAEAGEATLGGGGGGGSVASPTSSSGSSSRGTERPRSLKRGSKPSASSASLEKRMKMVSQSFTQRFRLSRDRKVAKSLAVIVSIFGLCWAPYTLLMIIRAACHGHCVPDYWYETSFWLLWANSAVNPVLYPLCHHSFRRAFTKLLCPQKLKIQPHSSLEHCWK
Delta-type opioid receptor (Homo sapiens), sequence (P41143 whole entry): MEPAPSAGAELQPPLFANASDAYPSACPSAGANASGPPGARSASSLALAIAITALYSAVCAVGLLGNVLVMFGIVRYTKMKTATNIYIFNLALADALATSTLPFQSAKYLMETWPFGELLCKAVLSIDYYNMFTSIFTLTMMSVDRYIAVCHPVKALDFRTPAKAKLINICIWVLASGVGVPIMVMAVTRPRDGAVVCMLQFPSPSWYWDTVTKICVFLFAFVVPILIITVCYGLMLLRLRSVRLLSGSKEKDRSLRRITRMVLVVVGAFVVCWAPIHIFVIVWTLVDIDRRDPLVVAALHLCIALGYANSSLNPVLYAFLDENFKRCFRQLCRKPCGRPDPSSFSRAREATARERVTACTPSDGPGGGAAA
5-hydroxytryptamine receptor 1D (Homo sapiens), sequence (P28221 whole entry): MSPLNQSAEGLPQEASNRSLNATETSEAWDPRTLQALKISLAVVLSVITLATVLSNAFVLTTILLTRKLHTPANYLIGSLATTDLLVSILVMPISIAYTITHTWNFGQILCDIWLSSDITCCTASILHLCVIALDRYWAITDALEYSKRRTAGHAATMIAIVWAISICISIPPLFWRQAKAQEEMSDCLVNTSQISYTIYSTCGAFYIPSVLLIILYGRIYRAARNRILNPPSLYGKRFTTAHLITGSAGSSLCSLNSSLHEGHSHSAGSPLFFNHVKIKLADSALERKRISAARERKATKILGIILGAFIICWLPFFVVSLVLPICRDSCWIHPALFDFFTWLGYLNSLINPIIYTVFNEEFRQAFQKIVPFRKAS

For `COc1cc2c3c(c1OC)-c1cc4c(cc1CC3N(C)CC2c1ccccc1)OCO4` (stereo not given), the inhibition [1] was under 50%, the inhibition [2] was 92.2% and the inhibition [3] was under 50%. It also gave an inhibition [4] of 5.5%, an inhibition [5] of 8% and a Ki [6] of 627 nM. It also gave an inhibition (Sigma 2 receptor) of under 50%, an inhibition [7] of under 50% and an inhibition [8] of under 50%. The inhibition [9] was under 50%, the inhibition [10] was under 50% and the inhibition [11] was under 50%. For the same molecule, the inhibition [12] was under 50%, the inhibition [13] was under 50% and the Ki (Translocator protein) was 2900 nM. The inhibition [14] was under 50%, the inhibition [15] was 34.5% and the Ki [16] was 96 nM. It also gave an inhibition [17] of under 50%, an inhibition [18] of under 50% and an inhibition [19] of 10.1%. The inhibition [20] was under 50%, the inhibition [21] was under 50% and the inhibition [22] was under 50%. The inhibition [23] was under 50%.
